Results on 66 compounds are retold here after PubChem BioAssay AID1224921 (Broad Institute, 2016).

The test system of this assay is Clostridioides difficile clinical isolate growth, OD600, 24 h. Put plainly: C. difficile growth inhibition, confirmation, 4-point retest (AID 1224921).

SMILES strings stand for the structures. Activity calls are given as the source filed them. How the calls were made is not given here. Some results are limits rather than exact numbers.

What is called AC50 is the concentration at which the activity in the assay is half-maximal. As to `COc1ccccc1CNC(=O)C[C@H]1CC[C@H]2[C@@H](COC[C@@H](O)CN2C(=O)Nc2ccc(C(F)(F)F)cc2)O1`, the AC50 is 2.4 µM.
The figure for `O=C(C[C@@H]1CC[C@@H]2[C@H](COC[C@H](O)CN2C(=O)Nc2ccc(Cl)c(Cl)c2)O1)NCc1ccc(F)cc1` is 0.968 µM.
The figure for `CC(C)CC#Cc1ccc2c(c1)O[C@H](CN(C)Cc1ccc(C(=O)O)cc1)[C@@H](C)CN([C@H](C)CO)S2(=O)=O` is 17.9 µM; for `C[C@H]1CN([C@@H](C)CO)C(=O)c2ccccc2-c2ccccc2CO[C@H]1CN(C)Cc1ccc(F)cc1` it is > 16 µM (inactive); for `CO[C@H]1CN(C)C(=O)c2ccc(NC(=O)c3nc4ccccc4s3)cc2OC[C@@H](C)N(Cc2ccncc2)C[C@@H]1C` it is 30.8 µM.
For `CO[C@@H]1CN(C)C(=O)c2ccc(NC(=O)Nc3cc(Cl)cc(Cl)c3)cc2OC[C@H](C)NC[C@@H]1C`, the half-maximal activity concentration (AC50) is 8.07 µM.
Regarding `CCS(=O)(=O)N1[C@H](CO)[C@H](c2ccc(C#CCC3CCCC3)cc2)[C@@H]1C#N`, the AC50 was 19.8 µM.
The result for `C[C@@H]1CCCCO[C@H](CN(C)C(=O)Nc2ccc(C(F)(F)F)cc2)[C@H](C)CN([C@@H](C)CO)C(=O)c2cc(N(C)C)ccc2O1` reads > 60 µM (inactive); that for `CN(C)CC(=O)N1[C@H](C#N)[C@H](c2ccc(C#CC3CCCCC3)cc2)[C@H]1CO`, 14.2 µM; that for `O=C(C[C@H]1CC[C@@H]2[C@H](COC[C@H](O)CN2C(=O)Nc2ccc(C(F)(F)F)cc2)O1)NC1Cc2ccccc2C1`, 6.36 µM.
The figure for `C[C@@H]1CN([C@@H](C)CO)C(=O)c2cc(NC(=O)Nc3ccc(C(F)(F)F)cc3)ccc2O[C@@H](C)CCCCO[C@H]1CN(C)Cc1ccc2c(c1)OCO2` is 23.9 µM; for `O=C(C[C@@H]1CC[C@H]2[C@@H](COC[C@@H](O)CN2S(=O)(=O)c2ccc(Cl)cc2)O1)NCC1CCCCC1` it is 15.8 µM.
The figure for `O=C(NCC[C@@H]1CC[C@@H](NC(=O)c2cccnc2)[C@@H](CO)O1)Nc1ccc(C(F)(F)F)cc1` is 13.8 µM.
Regarding `CC(=O)N[C@H]1CC[C@H](CCNC(=O)Nc2ccc(C(F)(F)F)cc2)O[C@@H]1CO`, the AC50 was 9.65 µM.
Take `COc1ccc(S(=O)(=O)Nc2cccc3c2O[C@H](CN(C)Cc2ccc(Oc4ccccc4)cc2)[C@H](C)CN([C@@H](C)CO)C3=O)cc1`: the AC50 is 3.67 µM.
The result for `CNC(=O)C[C@H]1CC[C@@H]2[C@H](COC[C@H](O)CN2C(=O)Nc2ccc(Cl)c(Cl)c2)O1` reads 4.12 µM; that for `C[C@@H]1CCCCO[C@H](CN(C)CC2CCCCC2)[C@H](C)CN([C@@H](C)CO)C(=O)c2cc(NS(=O)(=O)c3ccc(Cl)cc3)ccc2O1`, 14.6 µM.
On to `C[C@@H]1CN([C@@H](C)CO)C(=O)c2cccc(NC(=O)Nc3ccc(C(F)(F)F)cc3)c2O[C@@H]1CN(C)C(=O)Nc1ccc(F)cc1`, for which the AC50 was 30 µM.
The figure for `CO[C@H](CN(C)C(=O)C1CC1)[C@@H](C)CN(C(=O)Nc1ccc(C(F)(F)F)cc1)[C@@H](C)CO` is 6.86 µM; for `CO[C@@H](CN(C)C(=O)C1CC1)[C@@H](C)CN(C(=O)Nc1ccc(C(F)(F)F)cc1)[C@@H](C)CO` it is 3.31 µM.
The figure for `C[C@H]1CN([C@@H](C)CO)C(=O)c2cccc(NC(=O)Nc3ccc(C(F)(F)F)cc3)c2O[C@@H]1CN(C)C(=O)Nc1ccccc1` is 32.2 µM.
The result for `CCC(=O)N[C@@H]1CC[C@@H](CCNC(=O)Nc2ccc(C(F)(F)F)cc2)O[C@@H]1CO` reads 3.9 µM; that for `O=C(NCC[C@H]1CC[C@@H](NC(=O)C2CC2)[C@H](CO)O1)Nc1ccc(C(F)(F)F)cc1`, 9.05 µM.
Regarding `COc1ccccc1CNC(=O)C[C@@H]1CC[C@H]2[C@@H](COC[C@@H](O)CN2C(=O)Nc2ccc(C(F)(F)F)cc2)O1`, the AC50 was 2.14 µM.
The figure for `CCNC(=O)C[C@@H]1CC[C@H]2[C@@H](COC[C@@H](O)CN2C(=O)Nc2ccc(C(F)(F)F)cc2)O1` is 10.4 µM.
The figure for `O=C(C[C@@H]1CC[C@H]2[C@@H](COC[C@@H](O)CN2C(=O)Nc2ccc(Cl)c(Cl)c2)O1)NCc1ccc(Cl)c(Cl)c1` is less than 0.5 µM; for `C[C@@H]1CCCCO[C@H](CN(C)Cc2ccc3c(c2)OCO3)[C@@H](C)CN([C@@H](C)CO)C(=O)c2cc(NC(=O)Nc3ccc(C(F)(F)F)cc3)ccc2O1` it is 20.9 µM.
The result for `CNC[C@@H]1OCCCC[C@H](C)Oc2ccc(NC(=O)Nc3ccc(C(F)(F)F)cc3)cc2C(=O)N([C@H](C)CO)C[C@@H]1C` reads 19.2 µM; that for `O=C(C[C@@H]1CC[C@@H]2[C@H](COC[C@@H](O)CN2C(=O)Nc2cc(Cl)cc(Cl)c2)O1)N1CCOCC1`, 14.2 µM.
In the case of `CO[C@@H](CN(C)C(=O)C1CC1)[C@@H](C)CN(C(=O)Nc1ccc(C(F)(F)F)cc1)[C@H](C)CO`, the half-maximal activity concentration (AC50) was 14.7 µM.
Take `O=C(NCC[C@H]1CC[C@H](NS(=O)(=O)c2ccc(F)cc2)[C@@H](CO)O1)Nc1ccc(Cl)cc1`: the AC50 was 16.7 µM.
The figure for `N#C[C@H]1[C@@H](c2ccc(C#CC3CCCC3)cc2)[C@H](CO)N1C(=O)Nc1ccc(F)cc1` is > 60 µM (inactive); for `O=C(C[C@H]1CC[C@@H]2[C@H](COC[C@@H](O)CN2C(=O)Nc2ccc(Cl)c(Cl)c2)O1)NCc1ccc(Cl)c(Cl)c1` it is 3.34 µM.
Regarding `O=C(C[C@H]1CC[C@H]2[C@@H](COC[C@@H](O)CN2C(=O)Nc2ccc(C(F)(F)F)cc2)O1)NCC1CCCCC1`, the concentration at half-maximal activity (AC50) was 1.27 µM.
As for `O=C(C[C@H]1CC[C@@H]2[C@H](COC[C@H](O)CN2C(=O)Nc2ccc(Cl)c(Cl)c2)O1)NC1CCC1`, the AC50 was 4.46 µM.
The result for `O=C(C[C@@H]1CC[C@H]2[C@@H](COC[C@H](O)CN2C(=O)Nc2ccc(Cl)c(Cl)c2)O1)NCc1ccccc1` reads 3.53 µM; that for `CO[C@H](CN(C)C(=O)C1CCOCC1)[C@H](C)CN(C(=O)Nc1ccc(C(F)(F)F)cc1)[C@H](C)CO`, 5.96 µM; that for `C[C@@H]1CCCCO[C@H](CN(C)CC2CC2)[C@H](C)CN([C@@H](C)CO)C(=O)c2cc(NC(=O)Nc3ccc(C(F)(F)F)cc3)ccc2O1`, 16 µM.
The result for `O=C(C[C@H]1CC[C@H]2[C@@H](COC[C@@H](O)CN2C(=O)Nc2ccc(C(F)(F)F)cc2)O1)NC1Cc2ccccc2C1` reads 7.54 µM; that for `CCNC(=O)C[C@H]1CC[C@@H]2[C@H](COC[C@@H](O)CN2C(=O)Nc2ccc(Cl)c(Cl)c2)O1`, 4.25 µM; that for `CCNC(=O)C[C@@H]1CC[C@H]2[C@@H](COC[C@@H](O)CN2C(=O)Nc2ccc(Cl)c(Cl)c2)O1`, 2.6 µM.
As to `O=C(C[C@H]1CC[C@H]2[C@@H](COC[C@@H](O)CN2C(=O)Nc2ccc(Cl)c(Cl)c2)O1)NCc1ccccc1`, the AC50 was 3.72 µM.
The result for `CO[C@@H](CN(C)S(=O)(=O)c1cn(C)cn1)[C@H](C)CN(C(=O)Nc1ccc(C(F)(F)F)cc1)[C@@H](C)CO` reads 2.44 µM.
The figure for `O=C(C[C@@H]1CC[C@@H]2[C@H](COC[C@H](O)CN2Cc2ccc(Oc3ccccc3)cc2)O1)N1CCCCC1` is 20.6 µM; for `C[C@H]1CN([C@@H](C)CO)C(=O)c2cccc(NC(=O)Nc3ccccc3)c2O[C@H]1CN(C)C(=O)Nc1ccc(C(F)(F)F)cc1` it is 28.2 µM; for `CCCN(C)C[C@@H]1OCCCC[C@H](C)Oc2ccc(NC(=O)Nc3ccc(C(F)(F)F)cc3)cc2C(=O)N([C@H](C)CO)C[C@@H]1C` it is 4.61 µM.
The figure for `Cc1cc(C(=O)Nc2cccc3c2O[C@@H](CN(C)Cc2ccc(-c4ccccc4)cc2)[C@H](C)CN([C@@H](C)CO)C3=O)n(C)n1` is 1.01 µM; for `O=C(C[C@H]1C[C@H]2c3cc(NC(=O)Nc4ccccc4)ccc3O[C@H]2[C@H](CO)O1)NC1CCCC1` it is > 60 µM (inactive).
On to `COc1ccccc1C#Cc1ccc([C@H]2[C@@H](C#N)N(C(=O)C3CCCCC3)[C@H]2CO)cc1`, for which the AC50 is 30 µM.
The result for `COc1ccc(CN(C)C[C@H]2Oc3c(NC(=O)Nc4ccc(C(F)(F)F)cc4)cccc3C(=O)N([C@@H](C)CO)C[C@H]2C)cc1` reads 1.65 µM; that for `O=C(C[C@H]1CC[C@H]2[C@@H](COC[C@H](O)CN2C(=O)Nc2ccc(Cl)c(Cl)c2)O1)NC1CCC1`, 2.03 µM; that for `COc1ccc(CN(C)C[C@@H]2OCCCC[C@H](C)Oc3ccc(NC(=O)Nc4cccc5ccccc45)cc3C(=O)N([C@H](C)CO)C[C@H]2C)cc1`, 22.6 µM.
As to `CO[C@@H]1CN(C)C(=O)c2ccc(NC(=O)C3CCOCC3)cc2OC[C@@H](C)N(C(=O)Nc2ccc(C(F)(F)F)cc2)C[C@H]1C`, the half-maximal activity concentration (AC50) was 16.1 µM.
The figure for `O=C(N[C@H]1CC[C@H](CCNS(=O)(=O)c2ccc(Cl)cc2)O[C@H]1CO)c1ccccn1` is > 60 µM (inactive); for `CO[C@@H]1CN(C)C(=O)c2cc(NC(=O)C3CCCC3)ccc2OC[C@@H](C)N(C(=O)Nc2ccc(C(F)(F)F)cc2)C[C@H]1C` it is 26.6 µM; for `Cc1noc(C)c1S(=O)(=O)Nc1ccc2c(c1)C(=O)N([C@@H](C)CO)C[C@H](C)[C@@H](CN(C)Cc1ccc3c(c1)OCO3)OCCCC[C@@H](C)O2` it is 11.7 µM.
The figure for `O=C(C[C@H]1CC[C@@H]2[C@H](COC[C@H](O)CN2C(=O)Nc2cc(Cl)cc(Cl)c2)O1)N1CCOCC1` is 9.61 µM; for `CO[C@@H]1CN(C)C(=O)c2ccc(NC(=O)c3ccccc3)cc2OC[C@H](C)N(C(=O)C2CC2)C[C@H]1C` it is > 60 µM (inactive).
The figure for `O=C(NCC[C@H]1CC[C@@H](NC(=O)c2cccnc2)[C@@H](CO)O1)Nc1ccc(C(F)(F)F)cc1` is 2.9 µM; for `O=C(C[C@H]1CC[C@@H]2[C@H](COC[C@@H](O)CN2C(=O)Nc2cc(Cl)cc(Cl)c2)O1)N1CCOCC1` it is 15.3 µM.
As to `O=C(NCC[C@@H]1CC[C@H](NC(=O)C2CC2)[C@H](CO)O1)Nc1ccc(C(F)(F)F)cc1`, the AC50 is 4.32 µM.
The figure for `CNC(=O)C[C@H]1CC[C@H]2[C@@H](COC[C@@H](O)CN2C(=O)Nc2ccc(Cl)c(Cl)c2)O1` is 2.75 µM; for `CO[C@@H](CN(C)C(=O)C1CCOCC1)[C@H](C)CN(C(=O)Nc1ccc(C(F)(F)F)cc1)[C@@H](C)CO` it is 3.45 µM; for `C[C@@H]1CN([C@H](C)CO)S(=O)(=O)c2ccc(C#CC3CCCCC3)cc2O[C@@H]1CN(C)C` it is 16.9 µM.
The figure for `O=C(C[C@@H]1CC[C@@H]2[C@H](COC[C@H](O)CN2C(=O)Nc2ccc(Cl)c(Cl)c2)O1)NCc1ccc(Cl)cc1` is 0.915 µM; for `CO[C@@H](CN(C)C(=O)C1CC1)[C@H](C)CN(C(=O)Nc1ccc(C(F)(F)F)cc1)[C@@H](C)CO` it is 3.04 µM.
